Earlier results as cited in PubChem BioAssay AID1259409 (Chemical Carcinogenesis Research Information System (CCRIS), 2018).
Several values for one entry are separate records, joined by “and”; a condition that tells them apart may be missing. Identical values can stand only once.

System: rodent chemically induced tumor inhibition, incidence and multiplicity
Test: CCRIS tumor inhibitor studies

Row | Compound | tumour outcome (control, treated, inhibition, significance) (Carcinogen: N-METHYL-N'-NITRO-NITROSOGUANIDINE, 13830-58-5, Dose [Inhibitor]: 0, 3.2 PPM IN FEED FOR 42 WK BEGINNING 1 MO POST CARCINOGEN TREATMENT (STUDY DURATION: 64 WK), Route [Inhibitor]: ORAL, Species: FISH, Strain/Sex: SHASTA RAINBOW TROUT/MALE,FEMALE, Target Tissue: Type of Lesion: KIDNEY: TUMOR, Dose [Carcinogen]: 35 PPM IN WATER FOR 30 MIN, Promoter: NONE) | tumour outcome (control, treated, inhibition, significance) (Carcinogen: N-METHYL-N'-NITRO-NITROSOGUANIDINE, 13830-58-5, Dose [Inhibitor]: 0, 3.2 PPM IN FEED FOR 42 WK BEGINNING 1 MO POST CARCINOGEN TREATMENT (STUDY DURATION: 64 WK), Route [Inhibitor]: ORAL, Species: FISH, Strain/Sex: SHASTA RAINBOW TROUT/MALE,FEMALE, Target Tissue: Type of Lesion: LIVER: TUMOR, Dose [Carcinogen]: 35 PPM IN WATER FOR 30 MIN, Promoter: NONE) | tumour outcome (control, treated, inhibition, significance) (Carcinogen: N-METHYL-N'-NITRO-NITROSOGUANIDINE, 13830-58-5, Dose [Inhibitor]: 0, 3.2 PPM IN FEED FOR 42 WK BEGINNING 1 MO POST CARCINOGEN TREATMENT (STUDY DURATION: 64 WK), Route [Inhibitor]: ORAL, Species: FISH, Strain/Sex: SHASTA RAINBOW TROUT/MALE,FEMALE, Target Tissue: Type of Lesion: STOMACH: TUMOR, Dose [Carcinogen]: 35 PPM IN WATER FOR 30 MIN, Promoter: NONE) | tumour outcome (control, treated, inhibition, significance) (Carcinogen: N-METHYL-N'-NITRO-NITROSOGUANIDINE, 13830-58-5, Dose [Inhibitor]: 0, 3.2 PPM IN FEED FOR 42 WK BEGINNING 1 MO POST CARCINOGEN TREATMENT (STUDY DURATION: 64 WK), Route [Inhibitor]: ORAL, Species: FISH, Strain/Sex: SHASTA RAINBOW TROUT/MALE,FEMALE, Target Tissue: Type of Lesion: SWIM BLADDER: TUMOR, Dose [Carcinogen]: 35 PPM IN WATER FOR 30 MIN, Promoter: NONE) | tumour outcome (control, treated, inhibition, significance) (Carcinogen: N-METHYL-N'-NITRO-NITROSOGUANIDINE, 13830-58-5, Dose [Inhibitor]: 0, 23 PPM IN FEED FOR 42 WK BEGINNING 1 MO POST CARCINOGEN TREATMENT (STUDY DURATION: 64 WK), Route [Inhibitor]: ORAL, Species: FISH, Strain/Sex: SHASTA RAINBOW TROUT/MALE,FEMALE, Target Tissue: Type of Lesion: KIDNEY: TUMOR, Dose [Carcinogen]: 35 PPM IN WATER FOR 30 MIN, Promoter: NONE) | tumour outcome (control, treated, inhibition, significance) (Carcinogen: N-METHYL-N'-NITRO-NITROSOGUANIDINE, 13830-58-5, Dose [Inhibitor]: 0, 23 PPM IN FEED FOR 42 WK BEGINNING 1 MO POST CARCINOGEN TREATMENT (STUDY DURATION: 64 WK), Route [Inhibitor]: ORAL, Species: FISH, Strain/Sex: SHASTA RAINBOW TROUT/MALE,FEMALE, Target Tissue: Type of Lesion: STOMACH: TUMOR, Dose [Carcinogen]: 35 PPM IN WATER FOR 30 MIN, Promoter: NONE) | tumour outcome (control, treated, inhibition, significance) (Carcinogen: N-METHYL-N'-NITRO-NITROSOGUANIDINE, 13830-58-5, Dose [Inhibitor]: 0, 104 PPM IN FEED FOR 42 WK BEGINNING 1 MO POST CARCINOGEN TREATMENT (STUDY DURATION: 64 WK), Route [Inhibitor]: ORAL, Species: FISH, Strain/Sex: SHASTA RAINBOW TROUT/MALE,FEMALE, Target Tissue: Type of Lesion: KIDNEY: TUMOR, Dose [Carcinogen]: 35 PPM IN WATER FOR 30 MIN, Promoter: NONE) | tumour outcome (control, treated, inhibition, significance) (Carcinogen: N-METHYL-N'-NITRO-NITROSOGUANIDINE, 13830-58-5, Dose [Inhibitor]: 0, 104 PPM IN FEED FOR 42 WK BEGINNING 1 MO POST CARCINOGEN TREATMENT (STUDY DURATION: 64 WK), Route [Inhibitor]: ORAL, Species: FISH, Strain/Sex: SHASTA RAINBOW TROUT/MALE,FEMALE, Target Tissue: Type of Lesion: LIVER: TUMOR, Dose [Carcinogen]: 35 PPM IN WATER FOR 30 MIN, Promoter: NONE) | tumour outcome (control, treated, inhibition, significance) (Carcinogen: N-METHYL-N'-NITRO-NITROSOGUANIDINE, 13830-58-5, Dose [Inhibitor]: 0, 104 PPM IN FEED FOR 42 WK BEGINNING 1 MO POST CARCINOGEN TREATMENT (STUDY DURATION: 64 WK), Route [Inhibitor]: ORAL, Species: FISH, Strain/Sex: SHASTA RAINBOW TROUT/MALE,FEMALE, Target Tissue: Type of Lesion: STOMACH: TUMOR, Dose [Carcinogen]: 35 PPM IN WATER FOR 30 MIN, Promoter: NONE) | tumour outcome (control, treated, inhibition, significance) (Carcinogen: 7,12-DIMETHYLBENZ[A]ANTHRACENE, 57-97-6, Dose [Inhibitor]: 0, 10 UMOL IN 0.2 ML ACETONE 1/D FOR 7 D BEGINNING 7 D PRIOR TO CARCINOGEN DOSE (STUDY DURATION: 17 WK), Route [Inhibitor]: DERMAL, Species: RAT, Strain/Sex: SENCAR/FEMALE, Target Tissue: Type of Lesion: SKIN: TUMOR, Dose [Carcinogen]: 40 NMOL IN 0.2 ML ACETONE ONCE, Promoter: 12-0-TETRADECANOYLPHORBOL-13-ACETATE, 16561-29-8) | tumour outcome (control, treated, inhibition, significance) (Carcinogen: 7,12-DIMETHYLBENZ[A]ANTHRACENE, 57-97-6, Dose [Inhibitor]: 0, 10 UMOL IN 0.2 ML ACETONE 2/WK FOR 16 WK APPLIED 30 MIN PRIOR TO PROMOTER DOSES (STUDY DURATION: 17 WK), Route [Inhibitor]: DERMAL, Species: RAT, Strain/Sex: SENCAR/FEMALE, Target Tissue: Type of Lesion: SKIN: TUMOR, Dose [Carcinogen]: 40 NMOL IN 0.2 ML ACETONE ONCE, Promoter: 12-0-TETRADECANOYLPHORBOL-13-ACETATE, 16561-29-8) | tumour outcome (control, treated, inhibition, significance) (Carcinogen: 7,12-DIMETHYLBENZ[A]ANTHRACENE, 57-97-6, Dose [Inhibitor]: 30 UMOL APPLIED 30-40 MIN BEFORE EACH TPA TREATMENT AND CONCURRENTLY WITH TPA (STUDY DURATION: 18 WK), Route [Inhibitor]: DERMAL, Species: MOUSE, Strain/Sex: CD-1/FEMALE, Target Tissue: Type of Lesion: SKIN: PAPILLOMA, Dose [Carcinogen]: 200 NMOL ONCE, Promoter: 12-O-TETRADECANOYLPHORBOL-13-ACETATE, 16561-29-8) | tumour outcome (control, treated, inhibition, significance) (Carcinogen: DIETHYLNITROSAMINE, 55-18-5, Dose [Inhibitor]: 0, 1 MG/D IN 0.2 ML CORN OIL 3/WK FOR 16 WKS BEGINNING POST CARCINOGEN DOSE (STUDY DURATION: 24 WKS), Route [Inhibitor]: GAVAGE, Species: MOUSE, Strain/Sex: SWISS/MALE, Target Tissue: Type of Lesion: KIDNEY: RENAL CELL TUMOR, Dose [Carcinogen]: 100 MG/KG BW IN SALINE ONCE, Promoter: FERRIC NITRILOTRIACETATE, 16448-54-7) | tumour outcome (control, treated, inhibition, significance) (Carcinogen: DIETHYLNITROSAMINE, 55-18-5, Dose [Inhibitor]: 0, 2 MG/D IN 0.2 ML CORN OIL 3/WK FOR 16 WK BEGINNING POST CARCINOGEN DOSE (STUDY DURATION:24 WKS), Route [Inhibitor]: GAVAGE, Species: MOUSE, Strain/Sex: SWISS/MALE, Target Tissue: Type of Lesion: KIDNEY: RENAL CELL TUMOR, Dose [Carcinogen]: 100 MG/KG BW IN SALINE ONCE, Promoter: FERRIC NITRILOTRIACETATE, 16448-54-7) | tumour outcome (control, treated, inhibition, significance) (Carcinogen: N-BUTYL-N-(4-HYDROXYBUTYL)NITROSAMINE, 3817-11-6, Dose [Inhibitor]: 0, 0.1% IN DIET CONCURRENT WITH PROMOTER BEGINNING POST CARCINOGEN TREATMENT AND CONTINUING FOR 36 WK (STUDY DURATION: 4, Route [Inhibitor]: ORAL, Species: RAT, Strain/Sex: F344/MALE, Target Tissue: Type of Lesion: URINARY BLADDER: CARCINOMA, Dose [Carcinogen]: 0.05% IN DRINKING WATER FOR 4 WK, Promoter: SODIUM SACCHARIN, 128-44-9) | tumour outcome (control, treated, inhibition, significance) (Carcinogen: N-BUTYL-N-(4-HYDROXYBUTYL)NITROSAMINE, 3817-11-6, Dose [Inhibitor]: 0, 0.1% IN DIET CONCURRENT WITH PROMOTER BEGINNING POST CARCINOGEN TREATMENT AND CONTINUING FOR 36 WK (STUDY DURATION: 4, Route [Inhibitor]: ORAL, Species: RAT, Strain/Sex: F344/MALE, Target Tissue: Type of Lesion: URINARY BLADDER: PAPILLOMA, Dose [Carcinogen]: 0.05% IN DRINKING WATER FOR 4 WK, Promoter: SODIUM SACCHARIN, 128-44-9)
1 | CCCC[C@@H](C)[C@@H](OC(=O)C[C@@H](CC(=O)O)C(=O)O)[C@H](C[C@@H](C)C[C@H](O)CCCC[C@@H](O)C[C@H](O)[C@H](C)N)OC(=O)C[C@@H](CC(=O)O)C(=O)O | 19%, 14%, 26%, not significant | 45%, 25%, 44%, not significant | 32%, 40%, -25%, not significant | 54%, 44%, 18%, not significant | 19%, 13%, 32%, not significant | 32%, 31%, 3%, not significant | 19%, 6%, 68%, p<0.05 | 45%, 76%, -69%, p<0.05 | 32%, 12%, 62%, p<0.05 and 54%, 51%, 6%, not significant |  |  |  |  |  |  | 
2 | CC(Cc1ccc(O)c(O)c1)C(C)Cc1ccc(O)c(O)c1 (stereo unspecified) |  |  |  |  |  |  |  |  |  | 100%, 100%, 0%, not significant | 100%, 85%, 15%, not calculated | 96%, 50%, 48%, not calculated | 68%, 20%, 71%, not calculated | 68%, 16%, 76%, not calculated | 2/23 (9%), 1/22 (5%), 44%, not significant | 5/23 (22%), 0/22 (0%), 100%, p<0.05
